In ChEMBL document CHEMBL3259619, “Antibacterial activity of a series of N2,N4-disubstituted quinazoline-2,4-diamines” (J Med Chem, 2014):
Converted amounts (≈) assume the structure as drawn. The source made the active and inactive calls.

How the values were obtained:
Staphylococcus aureus [1] = assay: Antimicrobial activity against methicillin-resistant Staphylococcus aureus CBD-635 assessed as complete inhibition of bacterial growth after overnight incubation; assay type: functional
Staphylococcus aureus [2] = assay: Antimicrobial activity against methicillin-resistant Staphylococcus aureus CBD-635 assessed as complete inhibition of bacterial growth at 5 times MIC after overnight incubation in presence of tetrahydrofolic acid; assay type: functional, organism-based
Staphylococcus aureus [3] = assay: Antimicrobial activity against methicillin-resistant Staphylococcus aureus CBD-635 assessed as zone of inhibition at 5 mg/ml after 24 hrs by disk diffusion assay; assay type: functional; conditions: for zone of inhibition at 5000 µg/mL: CBD-635, 24 h, read-out: IZ
Staphylococcus aureus [4] = assay: Antimicrobial activity against N2,N4-dibenzylquinazoline-2,4-diamine-induced methicillin-resistant Staphylococcus aureus CBD-635 mutant M1 assessed as complete inhibition of bacterial growth after overnight incubation; assay type: functional
Staphylococcus aureus [5] = assay: Antimicrobial activity against N2,N4-dibenzylquinazoline-2,4-diamine-induced methicillin-resistant Staphylococcus aureus CBD-635 mutant M2 assessed as complete inhibition of bacterial growth after overnight incubation; assay type: functional
Staphylococcus aureus [6] = assay: Antimicrobial activity against N2,N4-dibenzylquinazoline-2,4-diamine-induced methicillin-resistant Staphylococcus aureus CBD-635 mutant M3 assessed as complete inhibition of bacterial growth after overnight incubation; assay type: functional
Staphylococcus aureus [7] = assay: Antimicrobial activity against N2,N4-dibenzylquinazoline-2,4-diamine-induced methicillin-resistant Staphylococcus aureus CBD-635 mutant M4 assessed as complete inhibition of bacterial growth after overnight incubation; assay type: functional
Staphylococcus aureus [8] = assay: Antimicrobial activity against N2,N4-dibenzylquinazoline-2,4-diamine-induced methicillin-resistant Staphylococcus aureus CBD-635 mutant M5 assessed as complete inhibition of bacterial growth after overnight incubation; assay type: functional
Staphylococcus aureus [9] = assay: Antimicrobial activity against N2,N4-dibenzylquinazoline-2,4-diamine-induced methicillin-resistant Staphylococcus aureus CBD-635 mutant M6 assessed as complete inhibition of bacterial growth after overnight incubation; assay type: functional
Staphylococcus aureus [10] = assay: Antimicrobial activity against N2,N4-dibenzylquinazoline-2,4-diamine-induced methicillin-resistant Staphylococcus aureus CBD-635 mutant M7 assessed as complete inhibition of bacterial growth after overnight incubation; assay type: functional

Structure (SMILES)	MIC (Staphylococcus aureus [1]) [µM]	inhibition (Staphylococcus aureus [2])	inhibition zone (IZ) (Staphylococcus aureus [3])	zone of inhibition at 5000 µg/mL (Staphylococcus aureus [3]) [mm]	further results
COc1ccc(CNc2nc(NCc3ccccc3)c3ccc(Cl)cc3n2)cc1	22 (≈ 8.91 µg/mL)	inactive			
CNc1nc(NC2CC2)nc2ccccc12		inactive	inactive		
COc1cccc2nc(NC(C)C)nc(NCc3ccco3)c12	> 80	inactive		9	
c1coc(CNc2nc(NC3CCC3)nc3ccccc23)c1		inactive	inactive		
CC(C)Nc1nc(NC2CCCC2)c2ccccc2n1	37 (≈ 10 µg/mL)	inactive		10	
CC(C)Nc1nc(NCc2ccco2)c2cc(Cl)ccc2n1	32 (≈ 10.1 µg/mL)	inactive		11	
CC(C)Nc1nc(NCc2ccco2)c2ccc(Cl)cc2n1	32 (≈ 10.1 µg/mL)	inactive		12	
CC(C)Nc1nc(Nc2ccccc2)c2ccccc2n1	36 (≈ 10 µg/mL)	inactive		10	
COc1ccc(CNc2nc(NCc3ccccc3)nc3ccccc23)cc1	68 (≈ 25.2 µg/mL)	inactive			MIC (Staphylococcus aureus [4]): 27 µM (≈ 10 µg/mL); MIC (Staphylococcus aureus [5]): 27 µM (≈ 10 µg/mL); MIC (Staphylococcus aureus [6]): 27 µM (≈ 10 µg/mL); MIC (Staphylococcus aureus [7]): 2.7 µM (≈ 1 µg/mL); MIC (Staphylococcus aureus [8]): 27 µM (≈ 10 µg/mL); MIC (Staphylococcus aureus [9]): 2.7 µM (≈ 1 µg/mL); MIC (Staphylococcus aureus [10]): 27 µM (≈ 10 µg/mL)
COc1ccc2c(NCc3ccco3)nc(NC(C)C)nc2c1		inactive	inactive		
COc1ccc(CNc2nc(NCc3ccc(Cl)cc3)c3ccc(Cl)cc3n2)cc1	51 (≈ 22.4 µg/mL)	inactive			
CC(C)Nc1nc(NC(C)(C)C)c2ccccc2n1		inactive	inactive		
CC(C)Nc1nc(NCc2ccco2)c2cccc(Cl)c2n1	32 (≈ 10.1 µg/mL)	inactive		10	
c1ccc(CNc2nc(NCc3ccco3)c3ccccc3n2)cc1	30 (≈ 9.91 µg/mL)	inactive		11	
CC(C)Nc1nc(NCc2ccco2)nc2ccccc12	35 (≈ 9.88 µg/mL)	inactive		12	
CC(C)Nc1nc(NC(C)C)c2ccccc2n1		inactive	inactive		

Structure (SMILES)	MIC (Staphylococcus aureus [1]) [µM]	inhibition (Staphylococcus aureus [2])	inhibition zone (IZ) (Staphylococcus aureus [3])	zone of inhibition at 5000 µg/mL (Staphylococcus aureus [3]) [mm]	further results
CC(C)Nc1nc(NCC2CCCO2)c2ccccc2n1 (centres undefined)		inactive	inactive		
CCCCNc1nc(NCc2ccccc2)c2ccc(Cl)cc2n1	0.73 (≈ 0.249 µg/mL)	inactive			MIC (Staphylococcus aureus [4]): 0.73 µM (≈ 0.249 µg/mL); MIC (Staphylococcus aureus [5]): 0.73 µM (≈ 0.249 µg/mL); MIC (Staphylococcus aureus [6]): 0.73 µM (≈ 0.249 µg/mL); MIC (Staphylococcus aureus [7]): 0.73 µM (≈ 0.249 µg/mL); MIC (Staphylococcus aureus [8]): 0.73 µM (≈ 0.249 µg/mL); MIC (Staphylococcus aureus [9]): 0.73 µM (≈ 0.249 µg/mL); MIC (Staphylococcus aureus [10]): 0.73 µM (≈ 0.249 µg/mL)
CSCCNc1nc(NC(C)C)nc2ccccc12	> 360	inactive		9	
CCNc1nc(NC(C)C)c2ccccc2n1		inactive	inactive		
CCNc1nc(NC(C)C)nc2ccccc12		inactive	inactive		
Cc1ccc(CNc2nc(NCc3ccccc3)c3ccccc3n2)cc1	28 (≈ 9.92 µg/mL)	inactive			MIC (Staphylococcus aureus [4]): 28 µM (≈ 9.92 µg/mL); MIC (Staphylococcus aureus [5]): 2.8 µM (≈ 0.992 µg/mL); MIC (Staphylococcus aureus [6]): 2.8 µM (≈ 0.992 µg/mL); MIC (Staphylococcus aureus [7]): 2.8 µM (≈ 0.992 µg/mL); MIC (Staphylococcus aureus [8]): 2.8 µM (≈ 0.992 µg/mL); MIC (Staphylococcus aureus [9]): 2.8 µM (≈ 0.992 µg/mL); MIC (Staphylococcus aureus [10]): 2.8 µM (≈ 0.992 µg/mL)
CNc1nc(NC(C)C)c2ccccc2n1		inactive	inactive		
c1ccc(Nc2nc(Nc3ccccc3)c3ccccc3n2)cc1	32 (≈ 10 µg/mL)	inactive		10	
FC(F)(F)CNc1nc(NCc2ccco2)c2ccccc2n1		inactive	inactive		
CCCCNc1nc(Nc2ccccc2)nc2ccccc12	34 (≈ 9.94 µg/mL)	inactive		12	
CCCCNc1nc(Nc2ccccc2)c2ccccc2n1	34 (≈ 9.94 µg/mL)	inactive		14	
CC(C)Nc1nc(NCc2ccco2)c2c(Cl)cccc2n1	> 78	inactive		9	
c1ccc(CNc2nc(Nc3ccccc3)c3ccccc3n2)cc1	31 (≈ 10.1 µg/mL)	inactive		10	
CC(C)Nc1nc(NC2CC2)nc2ccccc12		inactive	inactive		
Cc1cccc2nc(NC(C)C)nc(NCc3ccco3)c12		inactive	inactive		
CNc1nc(NCCO)nc2ccccc12		inactive	inactive		
